In patent US8859527B2 (priority 2009, dated 2014):
Where two headings read alike, the source gives them in different places.

What was measured:
[1] = tested on: K-562 (human erythremia cell line); test: in vitro growth inhibition of tumor cells, K-562; format: cell-based; details: for Inhibition effects on in vitro growth: K562, 48 hours
Procedure: The tumor strains are A-549 (human lung adenocarcinoma cell line), BGC-823 (human gastric cancer cell line), C-6 (rat neurogliocytoma cell line), Hep G2 (human hepatic cancer cell line), HL-60 (human leukemia cell line), K-562 (human erythremia cell line) and Hela (human cervical cancer cell line). […] The drug was prepared as a stock solution of 10^−2 M by using physiological saline and diluted into the test solution in a gradient composed of five concentrations: C1 5×10^−5 M, C2 10^−5 M, C3 10^−6 M, C4 10^−7 M and C5 10^−8 M.
Experimental method: different tumor cells in exponential growth phase are inoculated in 96-well plates in a certain amount and the selected samples are added after the cells are cultured for 24 hours (suspension cells can be directly added after being inoculated), after the cells are incubated at 37° C. and 5% CO2 for another 48 hours, […] is added for further incubation for another 4 hours, and finally the samples are examined on a microplate reader after dissolving with DMSO.

[2] = water solubility by the method of Chinese Pharmacopoeia 2005; format: physicochemical; details: DPT not included
Procedure: HP-β-CD and DPT are prepared into inclusion complexes under different conditions, and the DPT concentration in the inclusion complex is determined by ultraviolet spectrophotometry, and the composition molar ratio of DPT to HP-β-CD in the inclusion complex is further calculated; the water-solubility of the inclusion complex is determined according to the method specified in the examples of Chinese Pharmacopoeia 2005, so that solubility of DPT in this inclusion complex is further calculated.
With regard to the three factors, namely the concentration of HP-β-CD solution, the temperature for inclusion and the duration for inclusion, orthogonal experiments are carried out on three levels (the concentrations of the HP-β-CD solutions are 10%, 20% and 30%; the temperatures are 40° C., 50° C. and 60° C.; the duration is 1 hour, 2 hour and 3 hour), content and solubility of DPT in the inclusion complex are used as the evaluation parameters for the efficacy of inclusion, and the results are shown in Table 3. The solubility is determined by the method specified in the examples in Chinese Pharmacopoeia 2005, and the results are shown in Table 4.
The DPT content in the inclusion complex is determined by ultraviolet spectrophotometry. The solubility is determined by using the method specified in the examples in Chinese Pharmacopoeia 2005, and the results are shown in Table 6.

[3] = tested on: P-388 leukemia; details: P-388 leukemia cell line; cited from earlier work
[4] = tested on: human non-small cell lung cancer H460 xenograft tumor; details: for Ending body weight / Tumor weight / Tumor-inhibition rate: 21 days
Procedure: The test article: the inclusion complex of DPT and SBE-β-CD, the content is 5.05%. Preparation Method: it is dissolved in a proper amount of saline after gentle shaking and the concentration is 0.4 mg/ml (which is the test solution for the 8 mg/kg group); other concentrations are prepared by diluting the stock solution of 0.4 mg/ml to the required concentration with physiological saline.
The control article: Etoposide injection produced by Qilu Pharmaceutical Co., Ltd. the batch number is 8060012EV, specification: 5 ml:0.1 g. Preparation Method: Etoposide injection is a kind of transparent sticky liquid and it is diluted with a proper amount of physiological saline and gently shaken and prepared as a homogeneous solution, and the concentration is 1 mg/ml.
Dosage setting: the high dosage group of DPT is 8 mg/kg, the medium dosage group of DPT is 4 mg/kg and the low dosage group of DPT is 2 mg/kg. The dosage for the positive control group of Etoposide injection is 20 mg/kg.
Experimental animals: source, germline and strain: BALB/c nude mice are provided by the Institute of Experimental Animals, Chinese Academy of Medical Sciences. Age: 35-40 days; body weight: 18-24 g; gender: male.
Transplanted tumor: the transplanted tumor for human nonsmall-cell lung cancer H460 in nude mice, and it is established by inoculating the human nonsmall-cell lung cancer H460 cell line hypodermically in the armpit of nude mice. 2×10^6 cells are inoculated.
Human non-small cell lung cancer H460 cell line in exponential phase of growth is prepared as a cell suspension of 2×10^7/ml under sterile conditions, 0.1 ml thereof is inoculated hypodermically in the right armpit of nude mice. The diameters of the transplanted tumors in the nude mice are measured by a sliding caliper, and the animals are randomly divided into different groups when the tumors grow up to the amount of 100 to 300 mm^3. The antitumor efficacy of the test article is dynamically observed by measuring the diameter of the tumor. The diameters of the tumor are determined once for every two days. The administration volume is 0.4 ml/20 g. The mice are killed 21 days after administration, and the tumors are surgically isolated and weighed. The calculation formula for tumor volume (TV) is as follows: TV=½×a×b^2 Wherein a and b represents for the length and the width, respectively.
The relative tumor volume (RTV) is calculated according to the measured results, and the calculation formula is as follows: RTV=Vt/V0. Wherein V0 is the tumor size measured during grouping and drug administration (d0), Vt is the tumor size in every measurements. The evaluation parameter for antitumor activity is the relative tumor growth rate T/C (%) which is calculated according to the formula as follows:
[formula] TRTV: the treatment group RTV; CRTV: the negative control group: RTV.

[5] = H460 nude mice, 8 mg/kg iv three times a week, 9 times

Structure (SMILES): COc1cc([C@@H]2c3cc4c(cc3C[C@H]3COC(=O)[C@@H]32)OCO4)cc(OC)c1OC [DPT, Deoxypodophyllotoxin]
- Inhibition effects on in vitro growth ([1]; 5 × 10^−5M): 67.05%
- Inhibition effects on in vitro growth ([1]; 10^−5M): 54.02%
- Inhibition effects on in vitro growth ([1]; 10^−6M): 50.95%
- Inhibition effects on in vitro growth ([1]; 10^−7M): 43.77%
- Inhibition effects on in vitro growth ([1]; 10^−8M): 35.82%
- inhibition effects compared with Etoposide ([1]; K-562, 10^−5 to 10^−8 M): significant better than that of Etoposide
- solubility of DPT in water [2]: about 0.5 mg/L
- in vitro inhibition effects [3]: in vitro inhibition effects
- Tumor volume ([4]; 2 mg/kg iv, 0 d): 296 ± 117 mm^3
- RTV ([4]; 2 mg/kg iv, 2 d): 1.396 ± 0.251
- T/C ([4]; 2 mg/kg iv, 2 d): 86.85%
- Tumor volume ([4]; 2 mg/kg iv, 2 d): 427 ± 190 mm^3
- RTV ([4]; 2 mg/kg iv, 4 d): 1.827 ± 0.373
- T/C ([4]; 2 mg/kg iv, 4 d): 69.97%
- Tumor volume ([4]; 2 mg/kg iv, 4 d): 554 ± 234 mm^3
- RTV ([4]; 2 mg/kg iv, 6 d): 2.391 ± 0.764
- T/C ([4]; 2 mg/kg iv, 6 d): 78.07%
- Tumor volume ([4]; 2 mg/kg iv, 6 d): 729 ± 364 mm^3
- RTV ([4]; 2 mg/kg iv, 8 d): 2.819 ± 0.559
- T/C ([4]; 2 mg/kg iv, 8 d): 64.20%
- Tumor volume ([4]; 2 mg/kg iv, 8 d): 807 ± 294 mm^3
- Gross tumor volume ([4]; 2 mg/kg iv, 10 d): 1039 ± 316 mm^3
- RTV ([4]; 2 mg/kg iv, 10 d): 3.750 ± 1.015
- T/C ([4]; 2 mg/kg iv, 10 d): 74.96%
- Gross tumor volume ([4]; 2 mg/kg iv, 12 d): 1424 ± 511 mm^3
- RTV ([4]; 2 mg/kg iv, 12 d): 5.122 ± 1.538
- T/C ([4]; 2 mg/kg iv, 12 d): 68.96%
- RTV ([4]; 2 mg/kg iv, 14 d): 6.698 ± 2.532
- T/C ([4]; 2 mg/kg iv, 14 d): 78.93%
- Tumor volume ([4]; 2 mg/kg iv, 14 d): 1777 ± 386 mm^3
- RTV ([4]; 2 mg/kg iv, 16 d): 8.626 ± 3.791
- T/C ([4]; 2 mg/kg iv, 16 d): 86.49%
- Tumor volume ([4]; 2 mg/kg iv, 16 d): 2249 ± 394 mm^3
- RTV ([4]; 2 mg/kg iv, 18 d): 8.825 ± 3.701
- T/C ([4]; 2 mg/kg iv, 18 d): 78.31%
- Tumor volume ([4]; 2 mg/kg iv, 18 d): 2304 ± 405 mm^3
- RTV ([4]; 2 mg/kg iv, 21 d): 9.776 ± 3.452
- T/C ([4]; 2 mg/kg iv, 21 d): 84.89%
- Tumor volume ([4]; 2 mg/kg iv, 21 d): 2591 ± 412 mm^3
- Tumor volume ([4]; 4 mg/kg iv, 0 d): 272 ± 131 mm^3
- RTV ([4]; 4 mg/kg iv, 2 d): 1.324 ± 0.236
- T/C ([4]; 4 mg/kg iv, 2 d): 82.37%
- Tumor volume ([4]; 4 mg/kg iv, 2 d): 381 ± 234 mm^3
- RTV ([4]; 4 mg/kg iv, 4 d): 1.823 ± 0.427
- T/C ([4]; 4 mg/kg iv, 4 d): 69.82%
- Tumor volume ([4]; 4 mg/kg iv, 4 d): 521 ± 288 mm^3
- RTV ([4]; 4 mg/kg iv, 6 d): 2.465 ± 0.699
- T/C ([4]; 4 mg/kg iv, 6 d): 80.49%
- Tumor volume ([4]; 4 mg/kg iv, 6 d): 729 ± 471 mm^3
- RTV ([4]; 4 mg/kg iv, 8 d): 3.331 ± 0.641
- T/C ([4]; 4 mg/kg iv, 8 d): 75.85%
- Tumor volume ([4]; 4 mg/kg iv, 8 d): 906 ± 434 mm^3
- Gross tumor volume ([4]; 4 mg/kg iv, 10 d): 1052 ± 475 mm^3
- RTV ([4]; 4 mg/kg iv, 10 d): 4.041 ± 1.493
- T/C ([4]; 4 mg/kg iv, 10 d): 80.78%
- Gross tumor volume ([4]; 4 mg/kg iv, 12 d): 1261 ± 586 mm^3
- RTV ([4]; 4 mg/kg iv, 12 d): 4.780 ± 1.070
- T/C ([4]; 4 mg/kg iv, 12 d): 64.35%
- RTV ([4]; 4 mg/kg iv, 14 d): 5.954 ± 1.425
- T/C ([4]; 4 mg/kg iv, 14 d): 70.16%
- Tumor volume ([4]; 4 mg/kg iv, 14 d): 1530 ± 572 mm^3
- RTV ([4]; 4 mg/kg iv, 16 d): 6.870 ± 1.613
- T/C ([4]; 4 mg/kg iv, 16 d): 68.88%
- Tumor volume ([4]; 4 mg/kg iv, 16 d): 1740 ± 637 mm^3
- RTV ([4]; 4 mg/kg iv, 18 d): 7.697 ± 2.279
- T/C ([4]; 4 mg/kg iv, 18 d): 68.30%
- Tumor volume ([4]; 4 mg/kg iv, 18 d): 1891 ± 664 mm^3
- RTV ([4]; 4 mg/kg iv, 21 d): 7.832 ± 1.816
- T/C ([4]; 4 mg/kg iv, 21 d): 68.01%
- Tumor volume ([4]; 4 mg/kg iv, 21 d): 1945 ± 586 mm^3
- Tumor volume ([4]; 8 mg/kg iv, 0 d): 247 ± 108 mm^3
- RTV ([4]; 8 mg/kg iv, 2 d): 1.248 ± 0.113
- T/C ([4]; 8 mg/kg iv, 2 d): 77.61%
- Tumor volume ([4]; 8 mg/kg iv, 2 d): 313 ± 151 mm^3
- RTV ([4]; 8 mg/kg iv, 4 d): 1.721 ± 0.287
- T/C ([4]; 8 mg/kg iv, 4 d): 65.92%
- Tumor volume ([4]; 8 mg/kg iv, 4 d): 430 ± 196 mm^3
- RTV ([4]; 8 mg/kg iv, 6 d): 2.403 ± 0.652
- T/C ([4]; 8 mg/kg iv, 6 d): 78.45%
- Tumor volume ([4]; 8 mg/kg iv, 6 d): 559 ± 179 mm^3
- RTV ([4]; 8 mg/kg iv, 8 d): 2.747 ± 0.766
- T/C ([4]; 8 mg/kg iv, 8 d): 62.55%
- Tumor volume ([4]; 8 mg/kg iv, 8 d): 635 ± 183 mm^3
- Gross tumor volume ([4]; 8 mg/kg iv, 10 d): 895 ± 252 mm^3
- RTV ([4]; 8 mg/kg iv, 10 d): 3.853 ± 0.732
- T/C ([4]; 8 mg/kg iv, 10 d): 77.03%
- Gross tumor volume ([4]; 8 mg/kg iv, 12 d): 1034 ± 246 mm^3
- RTV ([4]; 8 mg/kg iv, 12 d): 4.548 ± 1.106
- T/C ([4]; 8 mg/kg iv, 12 d): 61.23%
- RTV ([4]; 8 mg/kg iv, 14 d): 4.845 ± 1.330
- T/C ([4]; 8 mg/kg iv, 14 d): 57.10%
- Tumor volume ([4]; 8 mg/kg iv, 14 d): 1122 ± 368 mm^3
- RTV ([4]; 8 mg/kg iv, 16 d): 4.955 ± 1.786
- T/C ([4]; 8 mg/kg iv, 16 d): 49.68%
- Tumor volume ([4]; 8 mg/kg iv, 16 d): 1132 ± 397 mm^3
- RTV ([4]; 8 mg/kg iv, 18 d): 5.609 ± 1.197
- T/C ([4]; 8 mg/kg iv, 18 d): 49.77%
- Tumor volume ([4]; 8 mg/kg iv, 18 d): 1292 ± 340 mm^3
- RTV ([4]; 8 mg/kg iv, 21 d): 5.721 ± 0.925
- T/C ([4]; 8 mg/kg iv, 21 d): 49.68%
- Tumor volume ([4]; 8 mg/kg iv, 21 d): 1375 ± 558 mm^3
- Initial body weight ([4]; H460 nude mice, 2 mg/kg iv group): 22.50 ± 1.38 g
- Ending body weight ([4]; H460 nude mice, 2 mg/kg iv): 25.32 ± 2.25 g
- Tumor weight ([4]; H460 nude mice, 2 mg/kg iv): 2.94 ± 0.68 g
- Tumor-inhibition rate ([4]; H460 nude mice, 2 mg/kg iv): 9.49%
- Initial body weight ([4]; H460 nude mice, 4 mg/kg iv group): 23.33 ± 2.25 g
- Ending body weight ([4]; H460 nude mice, 4 mg/kg iv): 23.32 ± 2.08 g
- Tumor weight ([4]; H460 nude mice, 4 mg/kg iv): 2.52 ± 0.92 g
- Tumor-inhibition rate ([4]; H460 nude mice, 4 mg/kg iv): 22.56%
- Initial body weight ([4]; H460 nude mice, 8 mg/kg iv group): 22.33 ± 1.51 g
- Ending body weight [4, 5]: 22.55 ± 2.50 g
- Tumor weight [4, 5]: 1.85 ± 0.95 g
- Tumor-inhibition rate [4, 5]: 43.08%
- effects on the body weight of the animals ([4]; H460 nude mice, dosage groups of DPT (8, 4, 2 mg/kg iv)): no significant inhibition effects on the body weight of the animals
